According to US9957267B2, “Somatostatin modulators and uses thereof” (Crinetics Pharmaceuticals, Inc., priority 2015, dated 2018):
Where two headings read alike, the source gives them in different places.

Assays:
Format in all cases: cell-based
SSTR4 = molecular target: T1, SSTR4 (Homo sapiens, UniProt P31391); experiment: cAMP functional agonist assay, CHO cells expressing SSTR4
T1 construct: expressed in transfected cells
Protocol: (§1) Chinese hamster ovary (CHO) cells stably expressing one of the six human or rodent somatostatin receptor subtypes are grown to 85-100% confluence on standard tissue culture dishes in F12-Ham's growth media (Hyclone) with following additives: 10% donor calf serum (Hyclone), 200 U/mL penicillin (Hyclone), 200 μg/mL streptomycin (Hyclone), 20 mM HEPES (Hyclone), 200 μg/mL hygromycin Hyclone.
(§2) General overview: All SSTR subtypes are Gi coupled G-protein coupled receptors (GPCRs) that lead to decreases in intracellular cyclic AMP (cAMP) when activated by an agonist. […] One example of an intracellular cAMP assay is described below.

SSTR1 = molecular target: T2, SSTR1 (Homo sapiens, UniProt P30872); experiment: cAMP functional agonist assay, CHO cells expressing SSTR1
T2 construct: expressed in transfected cells
Protocol: as §1, §2

SSTR5 = molecular target: T3, SSTR5 (Homo sapiens, UniProt P35346); experiment: cAMP functional agonist assay, CHO cells expressing SSTR5; details: CHO cells stably expressing SSTR5, cAMP
T3 construct: expressed in transfected cells
Protocol: as §1
(§3) General overview: All SSTR subtypes are Gi coupled G-protein coupled receptors (GPCRs) that lead to decreases in intracellular cyclic AMP (cAMP) when activated by an agonist. Therefore, measurement of intracellular cAMP levels can be used to assess whether compounds of the invention are agonists of SSTR subtypes (John Kelly, Troy Stevens, W. Joseph Thompson, and Roland Seifert, Current Protocols in Pharmacology, 2005, 2.2.1-2.2). One example of an intracellular cAMP assay is described below.

SSTR3 = SSTR3 (UniProt P32745); experiment: cAMP functional agonist assay, CHO cells expressing SSTR3; details: CHO cells stably expressing SSTR3, cAMP
Protocol: as §1, §3

[1] = CHO cells stably expressing SSTR1, cAMP, read-out: SSTR1 EC50

T3 sequence (P35346 whole entry): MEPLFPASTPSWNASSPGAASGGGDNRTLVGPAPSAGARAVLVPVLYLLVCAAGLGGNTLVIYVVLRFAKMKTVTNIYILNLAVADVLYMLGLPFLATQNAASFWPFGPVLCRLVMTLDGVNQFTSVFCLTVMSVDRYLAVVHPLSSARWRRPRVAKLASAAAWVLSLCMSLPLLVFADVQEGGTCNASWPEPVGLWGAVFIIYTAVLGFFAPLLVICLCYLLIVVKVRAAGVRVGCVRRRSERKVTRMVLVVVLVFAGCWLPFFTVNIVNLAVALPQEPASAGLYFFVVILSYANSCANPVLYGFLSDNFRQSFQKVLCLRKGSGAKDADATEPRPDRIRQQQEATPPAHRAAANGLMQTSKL
T1 sequence (P31391 whole entry): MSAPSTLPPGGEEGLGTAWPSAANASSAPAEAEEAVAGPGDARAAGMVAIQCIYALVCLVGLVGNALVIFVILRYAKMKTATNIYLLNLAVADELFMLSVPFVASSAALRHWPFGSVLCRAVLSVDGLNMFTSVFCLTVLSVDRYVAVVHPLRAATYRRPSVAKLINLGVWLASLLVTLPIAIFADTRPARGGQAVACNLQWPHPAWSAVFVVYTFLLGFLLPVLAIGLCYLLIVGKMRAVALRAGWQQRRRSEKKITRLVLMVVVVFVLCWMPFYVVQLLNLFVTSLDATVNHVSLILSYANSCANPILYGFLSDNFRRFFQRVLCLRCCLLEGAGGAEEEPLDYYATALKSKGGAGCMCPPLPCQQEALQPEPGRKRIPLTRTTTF
Sequence of SSTR3 (P32745 whole entry): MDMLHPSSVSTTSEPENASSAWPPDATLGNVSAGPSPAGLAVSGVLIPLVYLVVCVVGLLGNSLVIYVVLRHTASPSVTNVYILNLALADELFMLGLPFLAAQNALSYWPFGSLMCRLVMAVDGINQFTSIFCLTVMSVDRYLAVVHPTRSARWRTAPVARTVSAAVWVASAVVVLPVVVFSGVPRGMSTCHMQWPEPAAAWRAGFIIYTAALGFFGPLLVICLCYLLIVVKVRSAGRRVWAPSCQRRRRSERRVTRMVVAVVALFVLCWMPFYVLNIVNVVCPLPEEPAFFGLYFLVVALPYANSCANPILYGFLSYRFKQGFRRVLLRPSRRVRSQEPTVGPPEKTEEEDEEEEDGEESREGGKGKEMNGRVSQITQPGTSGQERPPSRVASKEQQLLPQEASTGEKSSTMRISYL
T2 sequence (P30872 whole entry): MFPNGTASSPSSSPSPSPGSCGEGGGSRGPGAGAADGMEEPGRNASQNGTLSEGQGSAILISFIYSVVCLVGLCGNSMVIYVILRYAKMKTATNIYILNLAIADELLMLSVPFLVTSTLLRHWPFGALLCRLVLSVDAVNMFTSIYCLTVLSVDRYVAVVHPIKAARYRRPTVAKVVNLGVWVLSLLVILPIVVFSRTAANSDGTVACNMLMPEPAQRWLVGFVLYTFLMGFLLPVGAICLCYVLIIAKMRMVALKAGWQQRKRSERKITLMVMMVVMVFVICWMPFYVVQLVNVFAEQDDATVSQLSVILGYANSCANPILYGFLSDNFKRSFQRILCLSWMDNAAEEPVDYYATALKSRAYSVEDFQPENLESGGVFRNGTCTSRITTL

| EC50 (SSTR4) | EC50 (SSTR1) | EC50 (SSTR5) | EC50 (SSTR3) | EC50 (SSTR4; CHO cells stably expressing SSTR4, cAMP, read-out: SSTR4 EC50) | EC50 (SSTR1; [1]) | SMILES |
| --- | --- | --- | --- | --- | --- | --- |
| < 100 nM | 100 to 10000 nM | 100 to 10000 nM | < 100 nM | – | – | Cc1cc(Cl)cc(-c2cnc3ncn(-c4cccc(O)c4)c(=O)c3c2CN(C)C[C@@H]2CCCN2)c1 [Compound A-30, 6-(3-chloro-5-methylphenyl)-3-(3-hydroxyphenyl)-5-({methyl[(2S)-pyrrolidin-2-ylmethyl]amino}methyl)-3H,4H-pyrido[2,3-d]pyrimidin-4-one] |
| – | – | > 10000 nM | < 100 nM | – | 100 to 10000 nM | Cc1cc(Cl)cc(-c2cnc3ncn(-c4cc(O)cc(F)c4)c(=O)c3c2CN(C)C[C@H]2CCCN2)c1 [Compound A-53, 6-(3-chloro-5-methylphenyl)-3-(3-fluoro-5-hydroxyphenyl)-5-({methyl[(2R)-pyrrolidin-2-ylmethyl]amino}methyl)-3H,4H-pyrido[2,3-d]pyrimidin-4-one] |
| < 100 nM | 100 to 10000 nM | > 10000 nM | < 100 nM | – | – | Cc1cc(C)cc(-c2cnc3ncn(-c4cc(O)cc(F)c4)c(=O)c3c2CN(C)C[C@@H]2CCCN2)c1 [Compound A-45, 6-(3,5-dimethylphenyl)-3-(3-fluoro-5-hydroxyphenyl)-5-({methyl[(2S)-pyrrolidin-2-ylmethyl]amino}methyl)-3H,4H-pyrido[2,3-d]pyrimidin-4-one] |
| < 100 nM | 100 to 10000 nM | 100 to 10000 nM | < 100 nM | – | – | CN(Cc1c(-c2cc(Cl)cc(CO)c2)cnc2ncn(-c3cccc(O)c3)c(=O)c12)C[C@@H]1CCCN1 [Compound A-38, 6-[3-chloro-5-(hydroxymethyl)phenyl]-3-(3-hydroxyphenyl)-5-({methyl[(2S)-pyrrolidin-2-ylmethyl]amino}methyl)-3H,4H-pyrido[2,3-d]pyrimidin-4-one] |
| – | – | 100 to 10000 nM | < 100 nM | – | 100 to 10000 nM | Cc1cc(Cl)cc(-c2cnc3ncn(-c4cc(O)cc(F)c4)c(=O)c3c2CN(C)C[C@@H]2CCCN2)c1 [Compound A-47, 6-(3-chloro-5-methylphenyl)-3-(3-fluoro-5-hydroxyphenyl)-5-({methyl[(2S)-pyrrolidin-2-ylmethyl]amino}methyl)-3H,4H-pyrido[2,3-d]pyrimidin-4-one] |

Second part, the molecule before the results:

| SMILES | EC50 (SSTR4) | EC50 (SSTR1) | EC50 (SSTR5) | EC50 (SSTR3) | EC50 (SSTR4; CHO cells stably expressing SSTR4, cAMP, read-out: SSTR4 EC50) | EC50 (SSTR1; [1]) |
| --- | --- | --- | --- | --- | --- | --- |
| CCN(CCN)Cc1c(-c2cc(C)cc(C)c2)cnc2ncn(-c3cccc(O)c3)c(=O)c12 [Compound A-2, 5-{[(2-aminoethyl)(ethyl)amino]methyl}-6-(3,5-dimethylphenyl)-3-(3-hydroxyphenyl)-3H,4H-pyrido[2,3-d]pyrimidin-4-one] | < 100 nM | > 10000 nM | 100 to 10000 nM | 100 to 10000 nM | – | – |
| Cc1cc(C)cc(-c2cnc3ncn(-c4cccc(O)c4)c(=O)c3c2CN(C)CCN)c1 [Compound A-1, 5-{[(2-aminoethyl)(methyl)amino]methyl}-6-(3,5-dimethylphenyl)-3-(3-hydroxyphenyl)-3H,4H-pyrido[2,3-d]pyrimidin-4-one] | – | > 10000 nM | > 10000 nM | 100 to 10000 nM | < 100 nM | – |
| Cc1cc(C)cc(-c2cnc3ncn(-c4cccc(O)c4)c(=O)c3c2CN(C)C[C@H]2CCCN2)c1 [Compound A-16, 6-(3,5-dimethylphenyl)-3-(3-hydroxyphenyl)-5-({methyl[(2R)-pyrrolidin-2-ylmethyl]amino}methyl)-3H,4H-pyrido[2,3-d]pyrimidin-4-one] | < 100 nM | > 10000 nM | > 10000 nM | < 100 nM | – | – |
| Cc1cc(C)cc(-c2cnc3ncn(-c4cccc(O)c4)c(=O)c3c2CN(C)C[C@@H]2CCCN2)c1 [Compound A-17, 6-(3,5-dimethylphenyl)-3-(3-hydroxyphenyl)-5-({methyl[(2S)-pyrrolidin-2-ylmethyl]amino}methyl)-3H,4H-pyrido[2,3-d]pyrimidin-4-one] | < 100 nM | 100 to 10000 nM | – | < 100 nM | – | – |
